# Results as given in US7629503B2, “Δ-4 desaturases from Euglena gracilis, expressing plants, and oils containing PUFA” (BASF Plant Science GmbH, priority 2003, dated 2009).
# System: Euglena gracilis Δ4-desaturase
# Assay: Substrate specificity: feeding fatty acids to yeast expressing the Δ-4-desaturase (pYES-EGD4-2), fatty acid analysis by GC
# Assay type: cell-based
# Details: transformed yeast (saccharomyces strain SC334, pYES-EGD4-2), 100 μM fatty acid substrate (67 μM for 16:1 Δ7), 2% galactose induction, 15° C. for 4 days
# Method: Yeasts transformed with the plasmid pYES-EGD4-2 as in Example 4 were analyzed in the following way:
# The yeast cells were grown in 1 ml of minimal medium with 0.2% raffinose for two days and then transferred into 5 ml of the same medium. This culture was grown at 30° C. for 6 h until the OD600 was 0.05. Then 100 μM of the fatty acid substrates (67 μM for 16:1 Δ7) were added, and the expression of the Δ-4-desaturase was induced by adding 2% galactose. The cells were then incubated at 15° C. for 4 days, harvested, washed with 100 mM NaHCO3 and employed for the fatty acid analysis by GC.
# The substrate specificities were found by feeding the transformed yeast strains with different fatty acids (Tab. 1). Conversion of the fed fatty acids to their Δ4-desaturated products was then determined.
row,Compound,Conversion (in %) of the fed fatty acid to its Δ4-desaturated product
1,CCCCCCCCCCCCCCCC(=O)O [16:0],Not detectable
2,CCCCCCCCC=CCCCCCC(=O)O [16:1 Δ7],7.4 (±0.8) %
3,CCCCCC/C=C\CCCCCCCC(=O)O [16:1 Δ9],Not detectable
4,"CC/C=C\C/C=C\C/C=C\CCCCCC(=O)O [16:3 Δ7, 10, 13]",21.4 (±3.3) %
5,CCCCCCCCCCCCCCCCCC(=O)O [18:0],Not detectable
6,CCCCCCCC/C=C\CCCCCCCC(=O)O [18:1 Δ9],Not detectable
7,"CCCCC/C=C\C/C=C\CCCCCCCC(=O)O [18:2 Δ9, 12]",Not detectable
8,"CCCCC/C=C\C/C=C\C/C=C\CCCCC(=O)O [18:3 Δ6, 9, 12]",Not detectable
9,"CCCCC/C=C\C/C=C\C/C=C\CCCCCCC(=O)O [20:3 Δ8, 11, 14]",Not detectable
10,"CCCCC/C=C\C/C=C\C/C=C\C/C=C\CCCCCC(=O)O [22:4 Δ7, 10, 13, 16]",28.7 (±2.5) %
11,"CC/C=C\C/C=C\C/C=C\C/C=C\C/C=C\CCCCCC(=O)O [22:5 Δ7, 10, 13, 16, 19, docosapentaenoic acid]",29.7 (±2.8) %
